Where a name gives a salt, the structure may show the parent alone. Some results are limits rather than exact numbers.

For data set [1], the system named is JEV NS4B Q130 mutant viruses. The data set is classed as cell-based, Japanese encephalitis virus.
For the next data set, the system named is YFV. The data set is classed as cell-based, yellow fever virus.
Data set [2] concerns JEV RVP. Put plainly: in vitro. Conditions: African green monkey, SI (selective index, CC50/IC50), Vero cells.
Data set [3] deals with JEV RVP. The experiment in a line: microbe, parasite or virus in culture. The following applies: Japanese encephalitis virus, Vero; for IC50: 24 h; for inhibition at 10 µM: read-out: level of inhibition in the primary screen.
In data set [4] the test system is JEV strain AT31. Conditions: mouse, in vivo.
Data set [5] concerns JEV strain AT31. Put plainly: qRT-PCR quantification of JEV RNA in cell lysates. Conditions: high-, middle- and low-dose groups, 24 h. On the technique in general: In qPCR the cycle at which signal appears reflects the starting amount.
The test system of the next data set is ZIKV. The experiment in a line: ZIKV infection of Vero cells (viral titer, RNA, IFA). Format: cell-based, Zika virus. The following applies: 48 h; for ZIKV plaque formation: 10 μM, Vero cells.
Data set [6] in a line: Cytotoxicity (CC50) of compounds from the reconfirmation screen. Format: cell-based. Conditions: African green monkey, Vero cells; 50% cytotoxic concentration.
For data set [7], the system named is JEV RVP. The following applies: Vero cells.
A further data set concerns JEV. The experiment in a line: IFA of JEV infection with calcium inhibitors on Vero and Huh-7 cells. Format: cell-based, Japanese encephalitis virus.
Another data set has as its system DENV-2 replicon. The experiment in a line: DENV-2 replicon luciferase assay in BHK-21 cells. Format: cell-based, dengue virus type 2. The following applies: 72 h. On the procedure: FIG 4 Broad-spectrum antiviral activity of the hit drugs against flaviviruses. […] The hit drugs were added to the cells at 1 h preinfection and were present throughout the experiment. At 48 h postinfection, the cell culture supernatants were subjected to a viral titer assay (top left), while cell lysates were assessed for viral RNA quantification (top right), and duplicate cells were analyzed by IFA for E protein (green) expression (bottom). Nuclei (blue) were stained with DAPI (4′,6-diamidino-2-phenylindole). (B and C) BHK-21 cells transfected with the WNV or DENV-2 replicon were treated with the hit drugs at the indicated concentrations, and luciferase activities were determined 48 h or 72 h later.
To ensure the effectiveness of the hit drugs in flavivirus replication, BHK-21 cells transfected with the JEV, WNV, or DENV-2 replicon were incubated with each drug at the concentrations indicated above, and the luciferase activities were determined 24 h, 48 h, or 72 h later, respectively.
On the technique in general: In antiviral work, replicon cells carry a viral genome segment that copies itself.

The term IC50 denotes the concentration that inhibits the measured activity by half. A high value points to lower potency. The inhibition is the drop in the measured response relative to a control, in per cent. By CC50 is commonly meant the concentration at which the toxic effect on the cells reaches its halfway point. Low readings indicate harm at low concentration, high ones better tolerance by the cells. As for `COC(=O)C1=C(C)NC(C)=C(C(=O)OCCN2CCN(C(c3ccccc3)c3ccccc3)CC2)C1c1cccc([N+](=O)[O-])c1` (stereo not drawn) [Manidipine], in [1], the “decrease of viral titer, Q130A mutant JEV” value is recorded as “higher than 2 log-unit”; the “decrease of viral titer, Q130K mutant JEV” value is “less than 2 log units”; the “decrease of viral titer, Q130R mutant JEV” value was “less than 2 log units”; the “reduction of viral yields, WT JEV” value was “approximately 4 log units”. Also, the “resistance of Q130E mutant JEV to the drug” value in [1] is given as “no resistance”. Further, in the data set with YFV, the “sensitivity of YFV to the drug” value is reported as “resistance”. In addition, the selectivity ratio in the data set with JEV RVP [2] was greater than 62.5. This compound yielded an IC50 in the data set with JEV RVP [3] of 1.6 µM. Besides, in the data set with JEV strain AT31 [4], the “effect on peripheral JEV infection (serum and spleen viral loads)” value was “little effect”; the “histopathological changes in brain (meningitis, perivascular cuffing, vacuolar degeneration, glial nodules)” value is recorded as “remarkably alleviated”. Moreover, in the data set with JEV strain AT31 [4] (ip, 25 mg/kg), the “abnormal behavior of treated mice” value is reported as “little abnormal behavior”, the animals survived is on record as 12 out of 15 and the mortality rate is reported as 20%. In the data set on JEV strain AT31 [5], the “attenuation of JEV RNA levels (inhibitory effect vs control)” value is recorded as “at least 80%”. Further, in the data set on ZIKV, the ZIKV plaque formation entry was “no plaque formation”. Besides, in the data set with ZIKV (Zika virus, Vero, read-out: inhibition of ZIKV viral replication, translation, and viral yields), the inhibition at 5 µM turned out to be 95%. This compound also yielded a CC50 in data set [6] greater than 100 µM.
With `COC(=O)C1=C(C)NC(C)=C(C(=O)OCCN(C)Cc2ccccc2)C1c1cccc([N+](=O)[O-])c1` (stereo not drawn) [nicardipine hydrochloride], the inhibition at 10 µM in the data set with JEV RVP [3] is 66%.
Consider `CCOC(=O)C1=C(C)NC(C)=C(C(=O)OCC)C1c1ccccc1/C=C/C(=O)OC(C)(C)C` [Lacidipine], for which, in the data set with JEV RVP [2], the selectivity ratio stood at 4. The 50% inhibitory concentration (IC50) in the data set with JEV RVP [3] amounted to 3.5 µM. Also, the midpoint of cytotoxicity in data set [6], the CC50, lay at 14.1 µM.
As for `CC[C@@H]1/C=C(\C)C[C@H](C)C[C@H](OC)[C@H]2O[C@@](O)(C(=O)C(=O)N3CCCC[C@H]3C(=O)O[C@H](/C(C)=C/[C@@H]3CC[C@H](Cl)[C@H](OC)C3)[C@H](C)[C@@H](O)CC1=O)[C@H](C)C[C@@H]2OC` [Pimecrolimus], the selectivity ratio in the data set with JEV RVP [2] was greater than 32.3. The same compound had an IC50 in the data set with JEV RVP [3] of 3.1 µM. The “SI (selective index, CC50/IC50)” value with JEV RVP [7] is given as greater than 32. Besides, the CC50 in data set [6] is greater than 100 µM.
In the case of `COC(=O)C1=C(C)NC(C)=C(C(=O)OC2CCCN(Cc3ccccc3)C2)C1c1cccc([N+](=O)[O-])c1` (stereo not drawn) [Benidipine hydrochloride], the selectivity ratio with JEV RVP [2] worked out at 15. Moreover, it took 3.7 µM to reach half-maximal inhibition with JEV RVP [3] (IC50). Further, the 50% cytotoxic concentration (CC50) in data set [6] is 55.9 µM.
As for `CCOC(=O)C1=C(C)NC(C)=C(C(=O)OC)C1c1cccc(Cl)c1Cl` (stereo not drawn) [felodipine], the inhibition at 10 µM in the data set with JEV RVP [3] is 72%.
`COc1ccc(CCN(C)CCCC(C#N)(c2ccc(OC)c(OC)c2)C(C)C)cc1OC` (stereo not drawn) [Verapamil]: the “inhibition of JEV infection (IFA, prM-positive cells vs DMSO control)” value in the data set on JEV is “dose-dependent inhibition”.
`Clc1ccc(CCC(Cn2ccnc2)Sc2c(Cl)cccc2Cl)cc1` (stereo not drawn) [Butoconazole Nitrate]: the selectivity ratio with JEV RVP [2] came out at 4. Further, inhibition in the data set with JEV RVP [3] was half-maximal at 4 µM (IC50). Besides, it took 15.7 µM to reach half-maximal cytotoxicity in data set [6] (CC50).
With `COC(=O)C1=C(C)NC(C)=C(C(=O)OCC(C)C)C1c1ccccc1[N+](=O)[O-]` (stereo not drawn) [nisoldipine], the inhibition at 10 µM in the data set on JEV RVP [3] turned out to be 75%.
Consider `Clc1ccc(C(c2ccccc2Cl)C(Cl)Cl)cc1` (stereo not drawn) [Mitotane], for which, in the data set with JEV RVP [2], the selectivity ratio worked out at 3.9. In the data set on JEV RVP [3], this compound showed a 50% inhibitory concentration (IC50) of 6.6 µM. The same compound showed a CC50 in data set [6] of 25.9 µM.
As to `Fc1ccc(C(c2ccc(F)cc2)N2CCN(C/C=C/c3ccccc3)CC2)cc1` [flunarizine dihydrochloride], the inhibition at 10 µM with JEV RVP [3] is greater than 90%.
With `COCCOC(=O)C1=C(C)NC(C)=C(C(=O)OC/C=C/c2ccccc2)C1c1cccc([N+](=O)[O-])c1` (stereo not drawn) [Cilnidipine], in the data set on JEV RVP [2], the selectivity ratio was greater than 28.6. This compound also returned an IC50 in the data set on JEV RVP [3] of 3.5 µM. For the same compound, the ZIKV plaque formation entry with ZIKV is “no plaque formation”. The CC50 in data set [6] was greater than 100 µM.
Consider `CC(=O)OCOC(=O)CN(CC(=O)OCOC(C)=O)c1ccccc1OCCOc1ccccc1N(CC(=O)OCOC(C)=O)CC(=O)OCOC(C)=O` [BAPTA-AM, 1,2-bis-(o-aminophenoxy)-ethane-N,N,N′,N′-tetraacetic acid, tetraacetoxymethyl ester], for which the “inhibition of JEV infection (IFA, prM-positive cells vs DMSO control)” value in the data set with JEV is “suppress JEV infection”.
For `COc1ccc(CN2CCN(C(c3ccc(F)cc3)c3ccc(F)cc3)CC2)c(OC)c1OC.Cl.Cl` [lomerizine hydrochloride], the “level of inhibition in the primary screen” value in the data set on JEV RVP [7] (10 μM compound) is reported as greater than 90%.
`Cc1c(O)cccc1C(=O)N[C@@H](CSc1ccccc1)[C@H](O)CN1C[C@H]2CCCC[C@H]2C[C@H]1C(=O)NC(C)(C)C` [Nelfinavir Mesylate]: in the data set with DENV-2 replicon, the “level of DENV-2 replication (replicon luciferase)” value was “no effect at the concentrations tested”. Also, in the data set on JEV RVP [2], the selectivity ratio was 16.8. For the same compound, the half-maximal inhibitory concentration (IC50) with JEV RVP [3] is 1.6 µM. In data set [6], the midpoint of cytotoxicity, the CC50, lay at 27.1 µM.
